Assay results as given in publication PMC9225712, “Rational design of biodegradable sulphonamide candidates treating septicaemia by synergistic dual inhibition of COX-2/PGE2 axis and DHPS enzyme” (Journal of Enzyme Inhibition and Medicinal Chemistry, 2022).
Marks after values point to notes of the source that are not given here.

Assays:
[1] = biological target: T1, ovine COX-1 (Ovis aries, UniProt P05979); test: In vitro COX-1 enzymatic assay (Cayman kit 560131); assay type: biochemical; details: Mean ± SEM of triplicate determinations
T1 construct: purchased Cayman Chemicals Inc. 560131
T1 sequence (P05979 25-600): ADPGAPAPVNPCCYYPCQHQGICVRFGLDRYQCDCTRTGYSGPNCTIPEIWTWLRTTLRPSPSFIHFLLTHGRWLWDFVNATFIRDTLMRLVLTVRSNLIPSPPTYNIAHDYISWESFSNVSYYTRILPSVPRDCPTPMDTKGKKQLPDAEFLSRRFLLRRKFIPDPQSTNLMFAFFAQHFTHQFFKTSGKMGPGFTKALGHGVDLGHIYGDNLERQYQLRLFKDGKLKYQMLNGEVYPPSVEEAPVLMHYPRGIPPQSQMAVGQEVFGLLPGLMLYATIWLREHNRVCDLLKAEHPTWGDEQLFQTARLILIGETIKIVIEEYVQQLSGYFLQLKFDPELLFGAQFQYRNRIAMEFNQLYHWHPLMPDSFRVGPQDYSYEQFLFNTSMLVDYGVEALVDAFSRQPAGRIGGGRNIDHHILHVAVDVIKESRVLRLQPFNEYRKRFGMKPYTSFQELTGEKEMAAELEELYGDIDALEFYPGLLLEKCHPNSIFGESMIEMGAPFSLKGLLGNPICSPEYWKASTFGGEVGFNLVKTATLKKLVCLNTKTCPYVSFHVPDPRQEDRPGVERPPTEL

[2] = tested on: E. coli C11; details: for ED50, protective effect against bacteremic infection, Escherichia coli: mice, challenge dose 7.1x10^3 CFU/mouse ip, intragastric once a day for 7 days, survival
[3] = tested on: Staphylococcus aureus (RCMB 0100183); test: Inhibition zone, agar cup diffusion; details: RCMB0100183, 24 h, read-out: inhibition zones (IZ) S. aureus
[4] = tested on: S. aureus Smith; details: for ED50: Staphylococcus aureus, in Mus musculus, read-out: ED50 against S. aureus infection; for ED50, protective effect against bacteremic infection, Staphylococcus aureus: mice, challenge dose 9.5x10^6 CFU/mouse ip, intragastric once a day for 7 days, survival
[5] = tested on: Escherichia coli (RCMB 010052); test: Inhibition zone, agar cup diffusion; details: RCMB010052, 24 h, read-out: inhibition zones (IZ) E.coli
[6] = tested on: Gram-positive and Gram-negative bacteria; test: In vitro antibacterial screening, whole panel; assay type: cell-based; details: whole bacterial panel, result in words
[7] = tested on: gastric layers; test: Gastric ulcerogenic activity; details: fasted male Wistar rats, oral 30 µmol/kg twice at 4 h interval
[8] = tested on: carrageenan-induced paw edoema; test: Carrageenan-induced paw edoema in mice; details: for ED50: Mus musculus, 8 h, read-out: ED50 (95% confidence level); for Thickness of edoema 0h / percentage anti-inflammatory activity (AI%) 2h / Thickness of edoema 2h / percentage anti-inflammatory activity (AI%) 4h / Thickness of edoema 4h / percentage anti-inflammatory activity (AI%) 6h / Thickness of edoema 6h / Thickness of edoema 8h: mice, po 10 µmol/kg b.wt.; for Thickness of edoema 0h: 0 h (before carrageenan); for Thickness of edoema 0h / Thickness of edoema 2h / Thickness of edoema 4h / Thickness of edoema 6h / Thickness of edoema 8h: Mean ± SEM, n = 5; for Thickness of edoema 2h: 2 h after carrageenan; for Thickness of edoema 4h: 4 h after carrageenan; for Thickness of edoema 6h: 6 h after carrageenan; for Thickness of edoema 8h: 8 h after carrageenan
[9] = tested on: PGE2; test: Estimation of rat plasma PGE2; details: po 10 µmol/kg b.wt., 8 h after carrageenan; for % inhibition of PGE2-production: rat serum; for PGE2 serum conc.: rat, Mean ± SEM, n = 5
[10] = tested on: Streptococcus mutans (RCMB 0100172); test: Inhibition zone, agar cup diffusion; details: RCMB0100172, 24 h, read-out: inhibition zones (IZ) S. mutans
[11] = tested on: Salmonella typhi (RCMB 0100104); test: Inhibition zone, agar cup diffusion; assay type: cell-based; details: Salmonella enterica, 24 h, read-out: inhibition zones (IZ) S. typhi
[12] = tested on: Proteus vulgaris (RCMB 010085); test: Inhibition zone, agar cup diffusion; details: RCMB010085, 24 h, read-out: inhibition zones (IZ) P. vulgaris
[13] = tested on: Staphylococcus epidermidis (RCMB 0100183); test: Inhibition zone, agar cup diffusion; details: RCMB0100183, 24 h, read-out: inhibition zones (IZ) S. epidermidis
[14] = biological target: T2, human recombinant COX-2 (Homo sapiens, UniProt P35354); test: In vitro COX-2 enzymatic assay (Cayman kit 560131); details: for SI COX-1/COX-2: COX-2 selectivity index: COX-1 IC50/COX-2 IC50
T2 sequence (P35354 18-604): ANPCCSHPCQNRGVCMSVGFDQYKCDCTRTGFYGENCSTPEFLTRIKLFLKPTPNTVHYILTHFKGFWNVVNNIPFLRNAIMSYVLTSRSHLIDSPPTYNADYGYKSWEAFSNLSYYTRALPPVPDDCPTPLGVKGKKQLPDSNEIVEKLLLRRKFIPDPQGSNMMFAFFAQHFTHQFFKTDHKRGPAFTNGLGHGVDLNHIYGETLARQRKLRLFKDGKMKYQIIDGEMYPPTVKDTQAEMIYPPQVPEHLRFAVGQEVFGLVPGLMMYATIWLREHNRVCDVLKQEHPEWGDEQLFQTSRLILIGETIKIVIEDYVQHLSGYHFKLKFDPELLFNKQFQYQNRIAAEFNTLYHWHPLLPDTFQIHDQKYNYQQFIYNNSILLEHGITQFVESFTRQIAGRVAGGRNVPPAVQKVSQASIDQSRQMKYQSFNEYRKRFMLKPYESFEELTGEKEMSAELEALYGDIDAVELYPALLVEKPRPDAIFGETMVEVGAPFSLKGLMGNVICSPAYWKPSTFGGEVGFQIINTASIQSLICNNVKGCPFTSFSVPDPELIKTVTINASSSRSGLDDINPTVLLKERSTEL

[15] = tested on: Bacillus subtilis (RCMB 0100162); test: Inhibition zone, agar cup diffusion; details: RCMB0100162, 24 h, read-out: inhibition zones (IZ) B. subtillis
[16] = tested on: Pseudomonas aeruginosa (RCMB 0100243); test: Inhibition zone, agar cup diffusion; details: RCMB0100243, 24 h, read-out: inhibition zones (IZ) P.aeruginosa
[17] = tested on: Shigella dysenteriae (RCMB 0100542); test: Inhibition zone, agar cup diffusion; assay type: cell-based; details: RCMB0100542, 24 h, read-out: inhibition zones (IZ) S. dysenteriae

| SMILES | IC50 [1] [µM] | ED50, protective effect against bacteremic infection, Escherichia coli [2] [µmol/kg/day] | zone of inhibition at 1000 µg/mL [3] [mm] | ED50 [4] [µmol/kg] | ED50, protective effect against bacteremic infection, Staphylococcus aureus [4] [µmol/kg/day] | zone of inhibition at 1000 µg/mL [5] [mm] | in vitro antibacterial activity [6] | Gastric ulcerogenic effect, histopathological examination of gastric layers [7] | ED50 [8] [µmol/kg] | Thickness of edoema 0h [8] [mm] | percentage anti-inflammatory activity (AI%) 2h [8] | Thickness of edoema 2h [8] | percentage anti-inflammatory activity (AI%) 4h [8] | Thickness of edoema 4h [8] | percentage anti-inflammatory activity (AI%) 6h [8] | Thickness of edoema 6h [8] | Thickness of edoema 8h [8] | % inhibition of PGE2-production [9] [%] | PGE2 serum conc. [9] [pg/mL] | zone of inhibition at 1000 µg/mL [10] [mm] | other results |
| --- | --- | --- | --- | --- | --- | --- | --- | --- | --- | --- | --- | --- | --- | --- | --- | --- | --- | --- | --- | --- | --- |
| O=C(c1cc(/N=N/c2ccc(S(=O)(=O)Nc3ncccn3)cc2)ccc1O)N1CCCCC1 [Compound 5j, 4-((4-Hydroxy-3-(piperidine-1-carbonyl)phenyl)diazenyl)-N-(pyrimidin-2-yl) benzenesulfonamide] | 12.2 ± 0.06 | 272.7 | 28 | 302 | 302.1 | 14 | weak in vitro antibacterial activity | gastrointestinal safety profile | 10.9 | 0.67 ± 0.02 | (15.79%) | 0.80 ± 0.01^c mm | (51.39%) | 0.70 ± 0.01^c mm | (70.73%) | 0.60 ± 0.01^c mm | 0.53 ± 0.01^c mm | 83.25 | 221.236 ± 4.62 | 27 | ED50 ([2]; Escherichia coli, C11, in Mus musculus, read-out: ED50 against E.coli infection): 273 µmol/kg; zone of inhibition at 1000 µg/mL [11]: 15 mm; zone of inhibition at 1000 µg/mL [12]: 17 mm; zone of inhibition at 1000 µg/mL [13]: 30 mm; IC50 [14]: 50 ± 0.5 nM; SI COX-1/COX-2 [14]: 239.2; zone of inhibition at 1000 µg/mL [15]: 19 mm; zone of inhibition at 1000 µg/mL [16]: 16 mm; zone of inhibition at 1000 µg/mL [17]: 25 mm |
| O=C(c1cc(/N=N/c2ccc(S(=O)(=O)Nc3ncccn3)cc2)ccc1O)N1CCOCC1 [Compound 5n, 4-((4-Hydroxy-3-(morpholine-4-carbonyl)phenyl)diazenyl)-N-(pyrimidin-2-yl) benzenesulfonamide] | 10.6 ± 0.08 | 367.1 | 16 | 353 to 413 | 397.6 | 17 | weak in vitro antibacterial activity | gastrointestinal safety profile | 14.4 | 0.66 ± 0.004 | (-8.42%) | 1.03 ± 0.03 mm | (10.42%) | 1.29 ± 0.01 mm | (51.71%) | 0.99 ± 0.05 mm | 0.90 ± 0.01 mm | 55.18 | 591.842 ± 5.96 | 28 | zone of inhibition at 1000 µg/mL [11]: 14 mm; zone of inhibition at 1000 µg/mL [12]: 18 mm; zone of inhibition at 1000 µg/mL [13]: 33 mm; IC50 [14]: 70 ± 0.5 nM; SI COX-1/COX-2 [14]: 153.6; zone of inhibition at 1000 µg/mL [15]: 17 mm; zone of inhibition at 1000 µg/mL [16]: 14 mm; zone of inhibition at 1000 µg/mL [17]: 24 mm |
| Cc1ccnc(NS(=O)(=O)c2ccc(/N=N/c3ccc(O)c(C(=O)N4CCOCC4)c3)cc2)n1 [Compound 5o, 4-((4-Hydroxy-3-(morpholine-4-carbonyl)phenyl)diazenyl)-N-(4-methylpyrimidin-2-yl) benzenesulfonamide] | 12.9 ± 0.05 | 306.4 | 21 | 353 to 413 | 352.7 | 16 | weak in vitro antibacterial activity | erosion in the gastric layers | 13.3 | 0.65 ± 0.004 | (6.32%) | 0.89 ± 0.01^c mm | (43.06%) | 0.82 ± 0.02^c mm | (63.41%) | 0.75 ± 0.02^c mm | 0.64 ± 0.02^c mm | 72.92 | 357.636 ± 7.48 | 27 | zone of inhibition at 1000 µg/mL [11]: 18 mm; zone of inhibition at 1000 µg/mL [12]: 19 mm; zone of inhibition at 1000 µg/mL [13]: 35 mm; IC50 [14]: 60 ± 0.8 nM; SI COX-1/COX-2 [14]: 211.5; zone of inhibition at 1000 µg/mL [15]: 20 mm; zone of inhibition at 1000 µg/mL [16]: 18 mm; zone of inhibition at 1000 µg/mL [17]: 23 mm |
